Laboratory results from ChEMBL document CHEMBL3886489, “Fused pyrazole derivatives as novel ERK inhibitors” (2016).

Target: Mitogen-activated protein kinase 1 (Mus musculus, UniProt P63085)
Experiment: TdF (Temperature Dependence Fluorescence) Assay: The SAR (Structure Activity Relationship) for ERK ligands covered by this invention was interrogated using the TdF (Temperature Dependence Fluorescence) assay or best known as thermal shift assay. (M. W. Pantoliano, et al., "High-density miniaturized thermal shift assays as a general strategy for drug discovery," J. Biomol. Screen 6 (2001) 429-440) The TdF assay was mainly conducted in the 96-well based CHROMO-4 real time fluorescence plate reader (BioRad). The Sypro Orange (Sigma-Aldrich), environmentally sensitive fluorescence dye, was used to monitor the protein folding-unfolding transition. Protein-ligand binding was gauged by the change (or shift) in the unfolding transition temperature (ΔTm) acquired at protein alone with respect to protein in the presence of ligand of interest.Compound of interest was first prepared in DMSO stock (typical concentration: 10 mM). […] Final percentage of DMSO resided in the sample was 2%. The sample plate was heated from 30° C. to 90° C. with thermal ramping rate of 1° C./min.

Mitogen-activated protein kinase 1, sequence (P63085 whole entry): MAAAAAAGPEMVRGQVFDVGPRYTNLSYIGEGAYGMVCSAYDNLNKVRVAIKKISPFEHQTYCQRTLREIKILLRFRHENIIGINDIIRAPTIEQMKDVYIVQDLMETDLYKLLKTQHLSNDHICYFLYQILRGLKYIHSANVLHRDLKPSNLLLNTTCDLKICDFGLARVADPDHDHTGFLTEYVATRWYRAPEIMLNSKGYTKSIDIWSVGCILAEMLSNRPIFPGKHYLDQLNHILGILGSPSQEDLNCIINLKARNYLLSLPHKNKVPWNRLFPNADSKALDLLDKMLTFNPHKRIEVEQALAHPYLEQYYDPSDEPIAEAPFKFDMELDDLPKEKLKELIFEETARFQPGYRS

- Kd: 6 nM
SMILES: O=C(N[C@H]1CNC[C@@H]1c1ccccc1)N1CCc2[nH]nc(-c3ccncc3)c2C1 (racemic)
